Test results reported in patent US10227342B2 (ARIAD PHARMACEUTICALS, INC., priority 2014, dated 2019).

Assays:
Format in all cases: cell-based
[1] = target: human EGFR E746-A750 deletion and T790M Mutation (DT) (Homo sapiens (Human), UniProt P00533, DEL746-750/T790M); assay: Ba/F3-EGFR-Del/T790M cell anti-proliferative assay (CellTiter 96 MTS, 72 h); settings: Ba/F3-EGFR-Del/T790M cells; for IC50: read-out: EGFR exon 19 deletion and T790M mutation IC50
Protocol: An expression vector, pLVX-IRES puro (Clontech) coding for human EGFR E746-A750 deletion and T790M Mutation, was transfected into HEK293 cells by the Trans-Lentiviral ORF Packaging System (Thermo Scientific), to produce virus encoding EGFR exon 19 deletion and T790M mutations. […] Ba/F3 cells expressing EGFR E746-A750 deletion and T790M Mutation (named Ba/F3-EGFR-Del/T790M) can proliferate in the absence of IL-3. The anti-proliferative activity of compounds was determined as follows: BaF3-EGFR-Del/T790M cells seeded in 96 well plates (2500 cells/well) were treated with test compound (dissolved in DMSO) at a series of concentrations (4-fold dilution, top concentration: 10,000 nM). The plates were incubated for 72 h in a 37° C. incubator with 5% CO2, and the number of viable cells in each well were measured indirectly by CellTiter 96® Aqueous One Solution Cell Proliferation Assay (Promega; this assay is a colorimetric method for determining the number of viable cells through measurement of their metabolic activity by detection of enzymatic conversion of tetrazolium salts into blue formazan derivatives). Reagent (20 μL) was added into each well, and the plates were returned to the incubator for 2 h. The absorbance in each well was then measured at 490 nm using an Envision plate reader (Perkin Elmer).

[2] = target: Her2 exon 20 YVMA insertion (A775_G776ins YVMA) (Homo sapiens (Human), UniProt P04626, INS775YVMA); assay: Ba/F3-Her2 Exon20 YVMA cell anti-proliferative assay (CellTiter 96 MTS, 72 h); settings: Ba/F3-Her2 Exon20 YVMA cells
Text: Ba/F3 cells expressing Her2 Exon20 YVMA insertions (named Ba/F3-Her2 Exon20 YVMA) can proliferate in the absence of IL-3.

[3] = target: human EGFR exon 20 insertion NPG (H773_V774insNPG) (Homo sapiens, UniProt P00533, INS773NPG, cells depend on it); assay: Ba/F3-EGFR-Exon20-NPG cell anti-proliferative assay (CellTiter 96 MTS, 72 h); settings: read-out: EGFR exon 20 NPG insertion IC50
Protocol: (§1) Ba/F3 cells expressing EGFR exon 20 insertions (named Ba/F3-EGFR-Exon20-NPG or Ba/F3-EGFR-Exon20-ASV) can proliferate in the absence of IL-3. The anti-proliferative activity of compounds were determined as follows: BaF3-EGFR-Exon20 cells (NPG or ASV) seeded in 96 well plates (2500 cells/well) were treated with test compound (dissolved in DMSO) at a series of concentrations (4-fold dilution, top concentration: 10,000 nM). The plates were incubated for 72 h in a 37° C. incubator with 5% CO2, and the number of viable cells in each well were measured indirectly by CellTiter 96® Aqueous One Solution Cell Proliferation Assay (Promega) This assay is a colorimetric method for determining the number of viable cells through measurement of their metabolic activity by detection of enzymatic conversion of tetrazolium salts into blue formazan derivatives. Reagent (20 μL) was added into each well, and the plates were returned to the incubator for 2 h. The absorbance in each well was then measured at 490 nm using an Envision plate reader (Perkin Elmer).

[4] = target: human EGFR exon 20 insertion ASV (V769_D770insASV) (Homo sapiens (Human), UniProt P00533, INS769ASV); assay: Ba/F3-EGFR-Exon20-ASV cell anti-proliferative assay (CellTiter 96 MTS, 72 h); settings: Ba/F3-EGFR-Exon20-ASV cells;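 note: Ba/F3 cells bearing the EGFR exon 20 ASV insertion, a line able to proliferate without IL-3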
Chain of human EGFR exon 20 insertion ASV (V769_D770insASV) (P00533 other isoform, or with tags, fused parts or gaps ins ASV behind 769): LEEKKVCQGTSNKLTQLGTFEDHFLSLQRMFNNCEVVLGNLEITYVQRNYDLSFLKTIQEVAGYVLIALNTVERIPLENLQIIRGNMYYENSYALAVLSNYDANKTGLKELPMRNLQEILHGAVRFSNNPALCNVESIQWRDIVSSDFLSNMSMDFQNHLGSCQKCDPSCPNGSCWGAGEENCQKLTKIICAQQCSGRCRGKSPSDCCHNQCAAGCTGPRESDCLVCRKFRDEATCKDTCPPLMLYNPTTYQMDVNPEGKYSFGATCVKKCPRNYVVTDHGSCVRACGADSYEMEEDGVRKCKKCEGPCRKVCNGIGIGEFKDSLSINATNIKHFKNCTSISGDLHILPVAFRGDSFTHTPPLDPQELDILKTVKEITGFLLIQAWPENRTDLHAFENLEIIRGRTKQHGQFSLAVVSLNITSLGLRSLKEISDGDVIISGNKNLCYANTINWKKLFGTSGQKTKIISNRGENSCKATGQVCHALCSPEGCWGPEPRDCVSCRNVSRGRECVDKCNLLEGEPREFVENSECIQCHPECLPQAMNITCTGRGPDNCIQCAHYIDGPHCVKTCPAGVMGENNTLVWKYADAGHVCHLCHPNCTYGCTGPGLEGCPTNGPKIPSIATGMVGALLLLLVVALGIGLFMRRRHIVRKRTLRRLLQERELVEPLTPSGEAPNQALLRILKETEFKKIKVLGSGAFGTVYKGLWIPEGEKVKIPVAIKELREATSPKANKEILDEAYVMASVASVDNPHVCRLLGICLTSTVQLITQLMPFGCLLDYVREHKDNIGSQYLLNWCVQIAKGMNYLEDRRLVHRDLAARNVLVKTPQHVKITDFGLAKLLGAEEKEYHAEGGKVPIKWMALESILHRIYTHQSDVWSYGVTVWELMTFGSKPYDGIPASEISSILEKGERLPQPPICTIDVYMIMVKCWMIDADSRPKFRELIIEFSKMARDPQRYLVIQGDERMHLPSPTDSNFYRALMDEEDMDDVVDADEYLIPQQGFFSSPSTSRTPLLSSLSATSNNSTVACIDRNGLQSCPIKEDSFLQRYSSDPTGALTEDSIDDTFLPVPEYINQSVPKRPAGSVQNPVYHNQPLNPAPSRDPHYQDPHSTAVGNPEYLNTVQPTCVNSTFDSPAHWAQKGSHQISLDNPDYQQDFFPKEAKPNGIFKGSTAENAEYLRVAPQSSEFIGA
Protocol: as §1

Chain of human EGFR exon 20 insertion NPG (H773_V774insNPG) (P00533 with tags, fused parts or gaps INS773NPG limits assumed): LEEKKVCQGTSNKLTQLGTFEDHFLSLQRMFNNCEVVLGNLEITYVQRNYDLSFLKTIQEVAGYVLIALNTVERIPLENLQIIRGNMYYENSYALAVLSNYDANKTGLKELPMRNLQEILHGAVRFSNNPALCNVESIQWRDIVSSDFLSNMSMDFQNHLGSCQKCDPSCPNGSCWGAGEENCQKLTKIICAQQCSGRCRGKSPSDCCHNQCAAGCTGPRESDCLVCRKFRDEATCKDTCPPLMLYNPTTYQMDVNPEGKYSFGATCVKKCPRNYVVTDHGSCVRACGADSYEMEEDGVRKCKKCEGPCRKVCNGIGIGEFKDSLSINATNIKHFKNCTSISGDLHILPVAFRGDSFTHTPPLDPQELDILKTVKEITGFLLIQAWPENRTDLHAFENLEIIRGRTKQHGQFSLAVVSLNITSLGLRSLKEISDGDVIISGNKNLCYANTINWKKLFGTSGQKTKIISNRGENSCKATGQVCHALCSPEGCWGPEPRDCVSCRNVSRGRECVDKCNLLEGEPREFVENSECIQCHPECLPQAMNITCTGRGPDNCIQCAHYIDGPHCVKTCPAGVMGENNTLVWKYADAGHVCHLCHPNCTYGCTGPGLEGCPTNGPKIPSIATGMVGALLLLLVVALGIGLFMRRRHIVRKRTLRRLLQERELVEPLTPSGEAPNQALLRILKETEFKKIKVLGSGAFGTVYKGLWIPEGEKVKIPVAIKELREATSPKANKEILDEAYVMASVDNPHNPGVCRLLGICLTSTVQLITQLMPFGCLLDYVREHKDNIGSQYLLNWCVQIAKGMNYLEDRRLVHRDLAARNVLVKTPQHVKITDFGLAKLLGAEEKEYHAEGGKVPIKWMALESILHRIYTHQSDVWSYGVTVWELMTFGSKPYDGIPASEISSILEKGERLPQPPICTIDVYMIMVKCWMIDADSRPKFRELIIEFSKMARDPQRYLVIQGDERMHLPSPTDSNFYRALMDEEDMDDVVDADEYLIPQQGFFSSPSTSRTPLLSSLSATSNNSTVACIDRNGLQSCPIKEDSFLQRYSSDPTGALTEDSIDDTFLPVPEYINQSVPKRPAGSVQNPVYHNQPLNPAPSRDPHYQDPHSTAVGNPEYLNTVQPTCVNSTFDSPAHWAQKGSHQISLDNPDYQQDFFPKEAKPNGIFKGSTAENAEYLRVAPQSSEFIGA
Chain of human EGFR E746-A750 deletion and T790M Mutation (DT) (P00533 other isoform, or with tags, fused parts or gaps T790M/del E746-A750): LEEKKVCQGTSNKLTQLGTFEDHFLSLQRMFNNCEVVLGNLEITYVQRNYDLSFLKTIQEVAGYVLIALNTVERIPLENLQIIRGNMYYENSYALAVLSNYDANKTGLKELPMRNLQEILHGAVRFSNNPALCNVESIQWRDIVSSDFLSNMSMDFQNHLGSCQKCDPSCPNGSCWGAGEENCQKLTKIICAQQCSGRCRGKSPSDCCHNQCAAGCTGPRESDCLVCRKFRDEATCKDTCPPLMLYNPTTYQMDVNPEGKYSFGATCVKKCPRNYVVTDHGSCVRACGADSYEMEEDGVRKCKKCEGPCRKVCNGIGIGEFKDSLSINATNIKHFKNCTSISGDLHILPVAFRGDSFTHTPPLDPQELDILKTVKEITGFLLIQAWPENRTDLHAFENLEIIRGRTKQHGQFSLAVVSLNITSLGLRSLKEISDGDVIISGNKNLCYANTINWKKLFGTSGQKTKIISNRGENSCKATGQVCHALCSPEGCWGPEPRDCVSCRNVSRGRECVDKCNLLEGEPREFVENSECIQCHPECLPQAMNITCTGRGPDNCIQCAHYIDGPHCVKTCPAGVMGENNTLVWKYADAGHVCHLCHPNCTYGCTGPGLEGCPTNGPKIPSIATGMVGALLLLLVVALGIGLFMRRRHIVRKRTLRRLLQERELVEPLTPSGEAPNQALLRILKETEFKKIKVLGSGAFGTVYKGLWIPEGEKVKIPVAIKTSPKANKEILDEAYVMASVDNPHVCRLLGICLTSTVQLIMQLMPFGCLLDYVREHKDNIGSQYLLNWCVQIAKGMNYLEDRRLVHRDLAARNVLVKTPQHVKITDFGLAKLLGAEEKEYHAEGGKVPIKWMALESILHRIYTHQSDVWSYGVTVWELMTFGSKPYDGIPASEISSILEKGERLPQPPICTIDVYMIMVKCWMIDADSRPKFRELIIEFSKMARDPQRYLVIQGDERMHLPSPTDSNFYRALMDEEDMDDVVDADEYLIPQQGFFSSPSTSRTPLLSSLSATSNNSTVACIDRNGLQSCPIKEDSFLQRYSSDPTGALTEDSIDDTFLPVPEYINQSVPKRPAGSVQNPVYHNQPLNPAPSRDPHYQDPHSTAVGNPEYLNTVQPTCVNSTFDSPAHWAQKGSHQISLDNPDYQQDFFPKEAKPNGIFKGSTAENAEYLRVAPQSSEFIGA
Chain of Her2 exon 20 YVMA insertion (A775_G776ins YVMA) (P04626 other isoform, or with tags, fused parts or gaps ins YVMA behind 775): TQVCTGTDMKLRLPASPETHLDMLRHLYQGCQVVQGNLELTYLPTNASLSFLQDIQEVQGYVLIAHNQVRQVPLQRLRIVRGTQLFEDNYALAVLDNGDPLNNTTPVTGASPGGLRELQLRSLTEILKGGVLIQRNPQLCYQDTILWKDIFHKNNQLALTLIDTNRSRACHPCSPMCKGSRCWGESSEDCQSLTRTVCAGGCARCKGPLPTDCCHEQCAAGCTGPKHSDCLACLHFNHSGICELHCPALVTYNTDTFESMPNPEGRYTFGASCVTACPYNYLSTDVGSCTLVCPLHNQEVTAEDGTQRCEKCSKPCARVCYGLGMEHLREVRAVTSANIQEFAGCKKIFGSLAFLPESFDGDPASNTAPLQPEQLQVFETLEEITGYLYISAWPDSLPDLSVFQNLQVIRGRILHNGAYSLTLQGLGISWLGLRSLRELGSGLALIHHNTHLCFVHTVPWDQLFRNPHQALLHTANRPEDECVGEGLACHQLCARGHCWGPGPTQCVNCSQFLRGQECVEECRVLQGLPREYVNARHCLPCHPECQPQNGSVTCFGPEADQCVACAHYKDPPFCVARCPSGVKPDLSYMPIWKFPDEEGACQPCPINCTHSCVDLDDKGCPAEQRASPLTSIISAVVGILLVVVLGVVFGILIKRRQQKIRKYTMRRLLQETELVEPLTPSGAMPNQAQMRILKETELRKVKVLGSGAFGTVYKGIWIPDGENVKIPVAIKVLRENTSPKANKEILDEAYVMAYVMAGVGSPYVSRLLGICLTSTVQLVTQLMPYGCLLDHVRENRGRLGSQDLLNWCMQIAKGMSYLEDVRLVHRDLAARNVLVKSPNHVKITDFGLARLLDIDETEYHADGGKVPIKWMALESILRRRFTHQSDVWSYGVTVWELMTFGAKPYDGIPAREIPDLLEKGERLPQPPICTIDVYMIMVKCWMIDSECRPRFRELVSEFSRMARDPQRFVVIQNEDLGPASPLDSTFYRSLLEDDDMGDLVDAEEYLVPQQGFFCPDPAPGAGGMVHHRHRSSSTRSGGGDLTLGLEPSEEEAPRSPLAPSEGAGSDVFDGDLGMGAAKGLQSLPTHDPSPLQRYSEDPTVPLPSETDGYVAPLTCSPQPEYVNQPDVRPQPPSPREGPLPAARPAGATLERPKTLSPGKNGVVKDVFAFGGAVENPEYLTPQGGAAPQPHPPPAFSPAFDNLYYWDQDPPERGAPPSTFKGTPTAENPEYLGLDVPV

C=CC(=O)Nc1cc(Nc2ncc(CC)c(-c3cnn4ccccc34)n2)c(OC)cc1N(C)CCN(C)C [Example 1, N-(2-((2-(dimethylamino)ethyl)(methyl)amino)-5-((5-ethyl-4-(pyrazolo[1,5-a]pyridin-3-yl)pyrimidin-2-yl)amino)-4-methoxyphenyl)acrylamide]
IC50 [1]: < 0.1 µM
IC50 [2]: 0.1 to 0.5 µM
IC50 [3]: < 0.1 µM

C=CC(=O)Nc1cc(Nc2ncnc(-c3c(C4=CCOCC4)n(C)c4ccccc34)n2)c(OC)cc1N(C)CCN(C)C [Example 2, N-(5-((4-(2-(3,6-dihydro-2H-pyran-4-yl)-1-methyl-1H-indol-3-yl)-1,3,5-triazin-2-yl)amino)-2-((2-(dimethylamino)ethyl)(methyl)amino)-4-methoxyphenyl)acrylamide]
IC50 [1]: < 0.1 µM
IC50 [2]: 0.1 to 0.5 µM
IC50 [3]: < 0.1 µM
IC50 [4]: < 0.1 µM

C=CC(=O)Nc1cc(Nc2ncnc(-c3c(-c4ccccc4)n(C)c4ccccc34)n2)c(OC)cc1N(C)CCN(C)C [Example 3, N-(2-((2-(dimethylamino)ethyl)(methyl)amino)-4-methoxy-5-((4-(1-methyl-2-phenyl-1H-indol-3-yl)-1,3,5-triazin-2-yl)amino)phenyl)acrylamide]
IC50 [1]: < 0.1 µM
IC50 [2]: 0.1 to 0.5 µM
IC50 [3]: < 0.1 µM
IC50 [4]: < 0.1 µM

C=CC(=O)Nc1cc(Nc2ncnc(-c3c(C4CCOCC4)n(C)c4ccccc34)n2)c(OC)cc1N(C)CCN(C)C [Example 4, N-(2-((2-(dimethylamino)ethyl)(methyl)amino)-4-methoxy-5-((4-(1-methyl-2-(tetrahydro-2H-pyran-4-yl)-1H-indol-3-yl)-1,3,5-triazin-2-yl)amino)phenyl)acrylamide]
EGFR exon 19 deletion and T790M mutation IC50 [1]: B (Group B compounds have an IC50 value for the indicated mutant between about 100 to about 500 nM)
IC50 [2]: 0.1 to 0.5 µM
IC50 [3]: < 0.1 µM
IC50 [4]: 0.1 to 0.5 µM

C=CC(=O)Nc1cc(Nc2nccc(-c3c(-c4cncc(Cl)c4)n(C)c4ccccc34)n2)c(OC)cc1N(C)CCN(C)C [Example 6, N-(5-((4-(2-(5-chloropyridin-3-yl)-1-methyl-1H-indol-3-yl)pyrimidin-2-yl)amino)-2-((2-(dimethylamino)ethyl)(methyl)amino)-4-methoxyphenyl)acrylamide]
IC50 [1]: < 0.1 µM
IC50 [2]: 0.1 to 0.5 µM
IC50 [3]: < 0.1 µM
IC50 [4]: < 0.1 µM

C=CC(=O)Nc1cc(Nc2ncc(C(=O)OC)c(-c3cn(C)c4ccccc34)n2)c(OC)cc1N(C)CCN(C)C [Example 8, methyl 2-((5-acrylamido-4-((2-(dimethylamino)ethyl)(methyl)amino)-2-methoxyphenyl)amino)-4-(1-methyl-1H-indol-3-yl)pyrimidine-5-carboxylate]
IC50 [1]: < 0.1 µM
IC50 [2]: < 0.1 µM
IC50 [3]: < 0.1 µM
IC50 [4]: < 0.1 µM

C=CC(=O)Nc1cc(Nc2ncc(C(=O)OC3COC3)c(-c3cn(C)c4ccccc34)n2)c(OC)cc1N(C)CCN(C)C [Example 11, oxetan-3-yl 2-((5-acrylamido-4-((2-(dimethylamino)ethyl)(methyl)amino)-2-methoxyphenyl)amino)-4-(1-methyl-1H-indol-3-yl)pyrimidine-5-carboxylate]
IC50 [1]: < 0.1 µM
IC50 [2]: < 0.1 µM
IC50 [3]: < 0.1 µM
IC50 [4]: < 0.1 µM

C=CC(=O)Nc1cc(Nc2ncc(C(=O)OC3CN(C)C3)c(-c3cn(C)c4ccccc34)n2)c(OC)cc1N(C)CCN(C)C [Example 12, 1-methylazetidin-3-yl 2-((5-acrylamido-4-((2-(dimethylamino)ethyl)(methyl)amino)-2-methoxyphenyl)amino)-4-(1-methyl-1H-indol-3-yl)pyrimidine-5-carboxylate]
IC50 [1]: > 1 µM
IC50 [2]: > 1 µM
IC50 [3]: > 1 µM
IC50 [4]: > 1 µM

C=CC(=O)Nc1cc(Nc2ncc(C(=O)OCC3CC3)c(-c3cn(C)c4ccccc34)n2)c(OC)cc1N(C)CCN(C)C [Example 13, cyclopropylmethyl 2-((5-acrylamido-4-((2-(dimethylamino)ethyl)(methyl)amino)-2-methoxyphenyl)amino)-4-(1-methyl-1H-indol-3-yl)pyrimidine-5-carboxylate]
IC50 [1]: < 0.1 µM
IC50 [2]: < 0.1 µM
IC50 [3]: < 0.1 µM
IC50 [4]: < 0.1 µM

C=CC(=O)Nc1cc(Nc2ncc(C(=O)OC3CCC3)c(-c3cn(C)c4ccccc34)n2)c(OC)cc1N(C)CCN(C)C [Example 14, cyclobutyl 2-((5-acrylamido-4-((2-(dimethylamino)ethyl)(methyl)amino)-2-methoxyphenyl)amino)-4-(1-methyl-1H-indol-3-yl)pyrimidine-5-carboxylate]
IC50 [1]: < 0.1 µM
IC50 [2]: < 0.1 µM
IC50 [3]: < 0.1 µM
IC50 [4]: < 0.1 µM

C=CC(=O)Nc1cc(Nc2ncc(Cl)c(-c3cnn4ccccc34)n2)c(OC)cc1N(C)CCN1CCN(C)CC1 [Example 27, N-(5-((5-chloro-4-(pyrazolo[1,5-a]pyridin-3-yl)pyrimidin-2-yl)amino)-4-methoxy-2-(methyl(2-(4-methylpiperazin-1-yl)ethyl)amino)phenyl)acrylamide]
IC50 [1]: < 0.1 µM
IC50 [2]: > 1 µM
IC50 [3]: 0.5 to 1 µM

C=CC(=O)Nc1cc(Nc2ncc(Cl)c(-c3cnn4ccccc34)n2)c(OC)cc1N(C)CCN(C)CCF [Example 33, N-(5-((5-chloro-4-(pyrazolo[1,5-a]pyridin-3-yl)pyrimidin-2-yl)amino)-2-((2-((2-fluoroethyl)(methyl)amino)ethyl)(methyl)amino)-4-methoxyphenyl)acrylamide]
IC50 [1]: < 0.1 µM
IC50 [2]: 0.5 to 1 µM
IC50 [3]: 0.1 to 0.5 µM

C=CC(=O)Nc1cc(Nc2ncc(Cl)c(-c3cn(C)c4c5c(ccc34)CCC5)n2)c(OC)cc1N(C)CCN(C)C [Example 43, N-(5-((5-chloro-4-(1-methyl-1,6,7,8-tetrahydrocyclopenta[g]indol-3-yl)pyrimidin-2-yl)amino)-2-((2-(dimethylamino)ethyl)(methyl)amino)-4-methoxyphenyl)acrylamide]
IC50 [1]: < 0.1 µM
IC50 [2]: 0.1 to 0.5 µM
IC50 [3]: < 0.1 µM

C=CC(=O)Nc1cc(Nc2ncc(Cl)c(-c3cn(C)c4ccccc34)n2)c(OC)cc1O[C@@H](COCC)CN(C)C [Example 44, (R)-N-(5-((5-chloro-4-(1-methyl-1H-indol-3-yl)pyrimidin-2-yl)amino)-2-((1-(dimethylamino)-3-ethoxypropan-2-yl)oxy)-4-methoxyphenyl)acrylamide]
IC50 [1]: < 0.1 µM
IC50 [2]: 0.5 to 1 µM
IC50 [3]: 0.1 to 0.5 µM

C=CC(=O)Nc1cc(Nc2ncc(Cl)c(-c3cn(C)c4ccccc34)n2)c(OC)cc1C#CCN(C)C [Example 45, N-(5-((5-chloro-4-(1-methyl-1H-indol-3-yl)pyrimidin-2-yl)amino)-2-(3-(dimethylamino)prop-1-yn-1-yl)-4-methoxyphenyl)acrylamide]
IC50 [1]: < 0.1 µM
IC50 [2]: 0.5 to 1 µM
IC50 [3]: 0.1 to 0.5 µM

C=CC(=O)Nc1cc(Nc2ncc(Cl)c(-c3cn(C)c4ccccc34)n2)c(OC)cc1C#CC(C)(C)N(C)C [Example 46, N-(5-((5-chloro-4-(1-methyl-1H-indol-3-yl)pyrimidin-2-yl)amino)-2-(3-(dimethylamino)-3-methylbut-1-yn-1-yl)-4-methoxyphenyl)acrylamide]
IC50 [1]: < 0.1 µM
IC50 [2]: 0.5 to 1 µM
IC50 [3]: 0.1 to 0.5 µM

C=CC(=O)Nc1cc(Nc2ncc(Cl)c(-c3cnn4ccccc34)n2)c(OC)cc1OC(COC)CN(CC)CC (stereo not drawn) [Example 47, N-(5-((5-chloro-4-(pyrazolo[1,5-a]pyridin-3-yl)pyrimidin-2-yl)amino)-2-((1-(diethylamino)-3-methoxypropan-2-yl)oxy)-4-methoxyphenyl) acrylamide]
IC50 [1]: < 0.1 µM
IC50 [2]: 0.5 to 1 µM
IC50 [3]: 0.1 to 0.5 µM

C=CC(=O)Nc1cc(Nc2ncc(Cl)c(-c3cnn4ccccc34)n2)c(OC)cc1OCCN1CCCC1 [Example 49, N-(5-((5-chloro-4-(pyrazolo[1,5-a]pyridin-3-yl)pyrimidin-2-yl)amino)-4-methoxy-2-(2-(pyrrolidin-1-yl)ethoxy)phenyl)acrylamide]
IC50 [1]: < 0.1 µM
IC50 [2]: 0.5 to 1 µM
IC50 [3]: 0.1 to 0.5 µM

C=CC(=O)Nc1cc(Nc2ncc(Cl)c(-c3cnn4ccccc34)n2)c(OC)cc1OCCN1CCOCC1 [Example 50, N-(5-((5-chloro-4-(pyrazolo[1,5-a]pyridin-3-yl)pyrimidin-2-yl)amino)-4-methoxy-2-(2-morpholinoethoxy)phenyl)acrylamide]
IC50 [1]: < 0.1 µM
IC50 [2]: > 1 µM
IC50 [3]: > 1 µM

C=CC(=O)Nc1cc(Nc2ncc(Cl)c(-c3cnn4ccccc34)n2)c(OC)cc1N(C)CCN(CC)CC [Example 53, N-(5-((5-chloro-4-(pyrazolo[1,5-a]pyridin-3-yl)pyrimidin-2-yl)amino)-2-((2-(diethylamino)ethyl)-(methyl)amino)-4-methoxyphenyl)acrylamide]
IC50 [1]: < 0.1 µM
IC50 [2]: 0.5 to 1 µM
IC50 [3]: 0.1 to 0.5 µM

C=CC(=O)Nc1cc(Nc2ncc(Cl)c(-c3cnn4ccccc34)n2)c(OC)cc1N(C)CCN1CCOCC1 [Example 54, N-(5-((5-chloro-4-(pyrazolo[1,5-a]pyridin-3-yl)pyrimidin-2-yl)amino)-4-methoxy-2-(methyl(2-morpholinoethyl)amino)phenyl)-acrylamide]
IC50 [1]: < 0.1 µM
IC50 [2]: > 1 µM
IC50 [3]: 0.5 to 1 µM

C=CC(=O)Nc1cc(Nc2nccc(-c3cn(C)c4ccccc34)n2)c(OC)cc1N(C)CCNC [Example 57, N-(4-methoxy-2-(methyl(2-(methylamino)ethyl)amino)-5-((4-(1-methyl-1H-indol-3-yl)pyrimidin-2-yl)amino)phenyl)acrylamide]
IC50 [2]: 0.1 to 0.5 µM
IC50 [3]: < 0.1 µM
IC50 [4]: 0.1 to 0.5 µM
